Data on two compounds can be found in PMC12615753, “Glutathione as a taste modulator: molecular mechanisms of interaction with umami and sweet taste receptors” (Food Chemistry: Molecular Sciences, 2025).

What is called EC50 is the concentration needed to bring the measured effect to its halfway point.

The test addresses T1, hTAS1R2/hTAS1R3(r1–575) (UniProt Q8TE23+Q923K1, A645S/A698V/A702T/A793V/A807V/C582S/C678S/E725V/E827G/F612A/F622V/F805L/I617V/I740A/I779T/I803L/K818R/L735F/L823M/L825Q/M644L/M706V/M729T/N675D/Q717H/Q757R/Q795R/Q831P/R632Q/R634S/R762C/S576L/S610P/S635P/S637R/S679G/T588V/T694M/T813A/V584A/V718M/V723A/V738A/V744T/V821L/W599R/W676R/W824R/Y598H/Y680C/Y794L).
T1 construct: hTAS1R3(r1–575) consists of the N-terminal extracellular domain of rTAS1R3 and the TMD of hTAS1R3; expressed in transfected cells
Nature of the test: Calcium assay, chimeric TAS1R3 co-expressed with hTAS1R2. It is filed as cell-based, human, rat. An excerpt:
Chimeric Gα proteins, such as Gα16Gust44, Gα16Gi3 or Gα15i2, are widely used in the functional expression of TAS1R receptors ([Backes et al., 2015]; [Suess et al., 2015]; [Toda et al., 2021], [Toda et al., 2013], [Toda et al., 2018]; [Zhang et al., 2008]). Chimeric Gα15i2 (([Toda et al., 2013]), Supplementary data) was generated by replacing the last five residues of the C-terminal tail of rat Gα15i2 (EINLL) (UniProt number G3V6N8; https://www.uniprot.org/uniprot/) with the counterpart sequence from human GNAI2 (DCGLF) (UniProt number P04899-1) and cloning into the pcDNA3.1/Hygro vector (Invitrogen, Thermo Fisher Scientific, Illkirch, France) between the HindIII and NotI restriction sites, resulting in the plasmid pcDNA3.1-Gα15i2. Chimeric Gα16Gust44 construct have already been reported ([Raliou et al., 2011]). Briefly, Gα16Gust44 was generated by replacing the C-terminal of Gα16 with the C-terminal 44 residues of gustducin. As previously described, hTAS1R1 was amplified from human fungiform papillae cDNA and cloned and inserted into pcDNA3 (Invitrogen), generating pcDNA3-TAS1R1-WT (wild-type) ([Raliou et al., 2011]). […]

T1 sequence (Q8TE23 20-839, stated change not applied): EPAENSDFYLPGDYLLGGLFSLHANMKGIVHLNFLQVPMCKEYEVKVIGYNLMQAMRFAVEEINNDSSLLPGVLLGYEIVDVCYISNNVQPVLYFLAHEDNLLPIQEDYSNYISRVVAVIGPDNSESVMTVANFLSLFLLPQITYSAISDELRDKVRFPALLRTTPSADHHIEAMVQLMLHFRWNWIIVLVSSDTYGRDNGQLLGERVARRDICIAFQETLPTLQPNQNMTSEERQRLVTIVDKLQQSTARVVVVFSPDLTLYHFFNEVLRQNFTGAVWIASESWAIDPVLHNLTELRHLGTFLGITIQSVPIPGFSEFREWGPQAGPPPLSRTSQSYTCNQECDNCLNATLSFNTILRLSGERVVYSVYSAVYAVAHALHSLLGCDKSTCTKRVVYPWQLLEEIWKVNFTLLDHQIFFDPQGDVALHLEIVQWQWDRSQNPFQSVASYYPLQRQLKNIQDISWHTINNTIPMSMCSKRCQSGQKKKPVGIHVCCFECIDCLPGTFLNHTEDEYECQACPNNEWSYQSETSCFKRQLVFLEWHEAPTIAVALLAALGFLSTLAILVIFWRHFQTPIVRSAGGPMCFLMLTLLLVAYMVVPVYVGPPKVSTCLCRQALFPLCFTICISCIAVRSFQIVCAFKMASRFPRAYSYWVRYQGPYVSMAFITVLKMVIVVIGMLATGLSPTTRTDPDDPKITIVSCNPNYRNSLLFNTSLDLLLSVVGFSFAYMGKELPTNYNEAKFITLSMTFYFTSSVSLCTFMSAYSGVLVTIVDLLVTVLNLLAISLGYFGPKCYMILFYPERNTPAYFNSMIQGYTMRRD
T1 sequence (Q923K1 other isoform, or with tags, fused parts or gaps with the stated changes): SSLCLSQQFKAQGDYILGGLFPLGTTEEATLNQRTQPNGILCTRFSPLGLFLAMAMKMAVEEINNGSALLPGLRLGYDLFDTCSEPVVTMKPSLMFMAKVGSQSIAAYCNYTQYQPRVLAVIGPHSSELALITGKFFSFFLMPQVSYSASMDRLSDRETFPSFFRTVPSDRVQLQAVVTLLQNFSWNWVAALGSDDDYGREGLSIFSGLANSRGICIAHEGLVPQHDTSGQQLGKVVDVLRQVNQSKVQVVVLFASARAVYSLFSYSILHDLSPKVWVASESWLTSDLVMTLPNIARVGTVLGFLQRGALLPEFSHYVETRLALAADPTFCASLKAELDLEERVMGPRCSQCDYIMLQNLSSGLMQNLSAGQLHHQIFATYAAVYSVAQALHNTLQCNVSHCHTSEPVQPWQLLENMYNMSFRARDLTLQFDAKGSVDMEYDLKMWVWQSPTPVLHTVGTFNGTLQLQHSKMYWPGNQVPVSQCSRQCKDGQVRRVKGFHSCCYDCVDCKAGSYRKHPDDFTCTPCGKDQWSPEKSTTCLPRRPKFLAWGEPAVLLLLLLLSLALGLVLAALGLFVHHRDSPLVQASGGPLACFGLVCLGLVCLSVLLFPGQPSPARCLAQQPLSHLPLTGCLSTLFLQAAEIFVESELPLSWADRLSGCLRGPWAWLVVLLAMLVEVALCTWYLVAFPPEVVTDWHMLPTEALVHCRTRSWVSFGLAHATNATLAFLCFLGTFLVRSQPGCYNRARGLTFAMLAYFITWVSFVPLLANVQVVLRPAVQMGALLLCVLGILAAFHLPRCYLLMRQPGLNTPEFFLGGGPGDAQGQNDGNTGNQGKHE

As to `N[C@@H](CCC(=O)N[C@@H](CS)C(=O)NCC(=O)O)C(=O)O` [GSH, γ-L-glutamyl-L-cysteinyl-glycine], the “fold decrease in the EC50 value of sucralose” value (in the presence of 10 mM GSH) was determined as 5.2 fold.
As to `OC[C@H]1O[C@H](O[C@]2(CCl)O[C@H](CCl)[C@@H](O)[C@@H]2O)[C@H](O)[C@@H](O)[C@H]1Cl` [sucralose, reference compound], the EC50 (sucralose alone, Fig. 3B) came out at 485 ± 138 µM.
